According to ChEMBL document CHEMBL1201862, “PubChem BioAssay data set” (2004):
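Five concentrations, 48 hours, 96-well plates. GI50 marks 50% less growth.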 Active and inactive are the calls of the source. Rule as the data show it: active = GI50 up to about 1.1 µM and inactive = higher.

Legend:
Assay in all cases: DTP human tumour cell line panel, 48 h
SF-268 = system: SF-268
K562 = system: K562
KM12 = system: KM12
Hs-578T = system: Hs-578T
UACC-62 = system: UACC-62
NCI-H23 = system: NCI-H23
RPMI-8226 = system: RPMI-8226
NCI-H460 = system: NCI-H460
SK-MEL-28 = system: SK-MEL-28
DU-145 = system: DU-145
HOP-62 = system: HOP-62
MDA-MB-435 = system: MDA-MB-435
HL-60 = system: HL-60
SNB-75 = system: SNB-75
HCC 2998 = system: HCC 2998
NCI-H522 = system: NCI-H522
NCI-H226 = system: NCI-H226
MOLT-4 = system: MOLT-4
CAKI-1 = system: CAKI-1
SK-MEL-5 = system: SK-MEL-5

Compound	GI50 (SF-268)	GI50 (K562)	GI50 (KM12)	GI50 (Hs-578T)	GI50 (UACC-62)	GI50 (NCI-H23)	GI50 (RPMI-8226)	GI50 (NCI-H460)	GI50 (SK-MEL-28)	GI50 (DU-145)	GI50 (HOP-62)	GI50 (MDA-MB-435)	GI50 (HL-60)	GI50 (SNB-75)	GI50 (HCC 2998)	GI50 (NCI-H522)	GI50 (NCI-H226)	GI50 (MOLT-4)	GI50 (CAKI-1)	GI50 (SK-MEL-5)
Oc1ccccc1CNCc1ccccc1O	> 100 µM (inactive)	39.6 µM (inactive)	> 100 µM (inactive)	39 µM (inactive)	> 100 µM (inactive)	> 100 µM (inactive)	32.7 µM (inactive)	78.5 µM (inactive)	> 100 µM (inactive)	> 100 µM (inactive)	> 100 µM (inactive)	54.3 µM (inactive)	> 100 µM (inactive)	> 100 µM (inactive)	19.2 µM (inactive)	> 100 µM (inactive)	> 100 µM (inactive)	88.5 µM (inactive)	> 100 µM (inactive)	46.9 µM (inactive)
O=C(Nc1ccccc1)O/N=C(/CBr)c1ccccc1	14.3 µM (inactive)	4.12 µM (inactive)	17.9 µM (inactive)	26.2 µM (inactive)	12.3 µM (inactive)	7.35 µM (inactive)	16.3 µM (inactive)	19 µM (inactive)	19.5 µM (inactive)	19.3 µM (inactive)	24.3 µM (inactive)	4.84 µM (inactive)	4.66 µM (inactive)	15.2 µM (inactive)	18.5 µM (inactive)	8.85 µM (inactive)	24 µM (inactive)	3.18 µM (inactive)	14.8 µM (inactive)	11.9 µM (inactive)
N#Cc1nc(/C=C/c2cccnc2)oc1N	> 100 µM (inactive)	> 100 µM (inactive)	> 100 µM (inactive)	> 100 µM (inactive)	> 100 µM (inactive)	> 100 µM (inactive)	> 100 µM (inactive)	> 100 µM (inactive)	> 100 µM (inactive)	> 100 µM (inactive)	> 100 µM (inactive)	> 100 µM (inactive)	> 100 µM (inactive)	> 100 µM (inactive)	> 100 µM (inactive)	> 100 µM (inactive)	> 100 µM (inactive)	> 100 µM (inactive)	> 100 µM (inactive)	> 100 µM (inactive)
Cc1ccc(S(=O)(=O)ON2C(=O)c3c(N)c(C#N)c(-c4ccccc4)c(-c4ccccc4)c3C2=O)cc1	34.3 µM (inactive)	6.41 µM (inactive)	51.1 µM (inactive)	71.3 µM (inactive)	17.1 µM (inactive)		11.1 µM (inactive)	35.6 µM (inactive)	15.2 µM (inactive)	25.9 µM (inactive)		9.77 µM (inactive)	2.7 µM (inactive)	36.4 µM (inactive)	31.2 µM (inactive)	15.6 µM (inactive)	15.9 µM (inactive)	10.2 µM (inactive)	16 µM (inactive)	17.1 µM (inactive)
Cc1sc(/N=C/c2c[nH]c3ccccc23)c(C#N)c1C	85.3 µM (inactive)	16.3 µM (inactive)	13.7 µM (inactive)	58.1 µM (inactive)	20.7 µM (inactive)	54.1 µM (inactive)	19.7 µM (inactive)	33.1 µM (inactive)	> 100 µM (inactive)	55.6 µM (inactive)	34.2 µM (inactive)	32.3 µM (inactive)	21.2 µM (inactive)	37.1 µM (inactive)	14.9 µM (inactive)	27.9 µM (inactive)	30.5 µM (inactive)	23 µM (inactive)	56.2 µM (inactive)	18.4 µM (inactive)
Oc1cc(Cl)cc2cc(Cl)cnc12	1.14 µM (inactive)	0.989 µM (active)	5.13 µM (inactive)	22.1 µM (inactive)	2.49 µM (inactive)	2.75 µM (inactive)	2.59 µM (inactive)	1.79 µM (inactive)	5.12 µM (inactive)	6.47 µM (inactive)	7.41 µM (inactive)	2.87 µM (inactive)	0.288 µM (active)	5.35 µM (inactive)	25.1 µM (inactive)	3.16 µM (inactive)	19.5 µM (inactive)	2.89 µM (inactive)	12.9 µM (inactive)	3.67 µM (inactive)
Cc1ccc(-c2cn3c(nc4ccccc43)c(C)n2)cc1	> 46.6 µM (inactive)	43.5 µM (inactive)	> 100 µM (inactive)	51.3 µM (inactive)	23.5 µM (inactive)	22.6 µM (inactive)	30.7 µM (inactive)	26.7 µM (inactive)	58.2 µM (inactive)	46.5 µM (inactive)	30.8 µM (inactive)	16 µM (inactive)	26.5 µM (inactive)	> 47 µM (inactive)	> 100 µM (inactive)	31.2 µM (inactive)	34.3 µM (inactive)	43.7 µM (inactive)	> 100 µM (inactive)	10.7 µM (inactive)
